Measured values taken from patent US20250154548A1, “CONTROL OF ENZYMATIC NUCLEIC ACID SYNTHESIS VIA ELECTROCHEMICAL MEANS” (The Charles Stark Draper Laboratory, Inc., priority 2023, published 2025).

Legend:
[1] = biological target: T1, TdT-dNTP conjugates (C7-C) (Mus musculus, UniProt P09838, C155A/C188A/C216N/C302P/C378E/C404A/C438A/D179A/D325G/D356E/D411H/D441E/D501E/E183G/E226Q/E418G/E487R/F267Y/F368W/G227E/G413Q/H416D/I229L/K247Q/K250C/K276D/L167K/L260P/L327T/L381Q/M192R/M313Q/M339K/M471L/N304T/Q166K/Q278R/Q287R/Q359K/Q371K/Q390L/R483N/S195A/S223R/S248A/S275E/S282T/S312E/T321Q/T465R/V311I/V320W/V484T); assay: Bead-based TdT extension assay; type: biochemical; conditions: for inhibition of TdT extension: various chelator concentrations
T1 construct: nucleotide (dNTP) covalently tethered through a cleavable linker; That it is dCTP and sits on Cys102 is my inference from the name C7-C and from K102C
T1 sequence (P09838 149-510 with the stated changes): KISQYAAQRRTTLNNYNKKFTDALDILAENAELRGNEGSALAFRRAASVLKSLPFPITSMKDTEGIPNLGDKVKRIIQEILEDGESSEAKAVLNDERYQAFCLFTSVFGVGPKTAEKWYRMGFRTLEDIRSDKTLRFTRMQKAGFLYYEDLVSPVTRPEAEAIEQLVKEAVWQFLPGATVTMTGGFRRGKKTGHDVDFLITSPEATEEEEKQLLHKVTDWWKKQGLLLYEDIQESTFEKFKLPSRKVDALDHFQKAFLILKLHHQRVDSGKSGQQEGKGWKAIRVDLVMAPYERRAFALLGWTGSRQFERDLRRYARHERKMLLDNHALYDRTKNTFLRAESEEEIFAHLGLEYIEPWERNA
Description: Extension assay was performed for 2 minutes at 37° C.
The ability of chelators to inhibit stepwise addition of nucleotides via TdT-dNTP conjugates was tested using a bead based assay: Magnetic beads (Dynabeads MyOne streptavidin beads (C1)) were functionalized with biotinylated, double-stranded DNA (dsDNA) that contains a 3′ 30-base overhang, which serves as the seed oligo for extension. Beads were prepared in buffer (20 mM potassium phosphate, 100 mM NaCl, pH 6.5) and washed with 3 times with Superblock prior to use. TdT-dNTP conjugates were prepared at 10 μM concentrations in buffer solution (20 mM potassium phosphate buffer, 100 mM NaCl, pH 6.5). Chelators and MnCl2 solutions were prepared at appropriate ratios (in water) so that final reaction concentrations were at 125 nM in MnCl2 and incubated for 10 minutes at room temperature. Once incubation was complete, TdT-dNTP conjugates were added to the chelator/MnCl2 solutions so that TdT-dNTP conjugates were at a final concentration of 5 μM. As controls, solutions with no chelator or with TCEP (for recovery activity) were also prepared.
Once all reagents were prepared, ds-DNA functionalized beads (10 μL volume) were added to low-bind Eppendorf tubes, followed by the TdT-dNTP conjugate/chelator/MnCl2 solution (50 μL total reaction volume). The tubes were incubated at 37° C. for 2 min, then tubes were placed on ice for 1 min. The beads were washed by placing tubes on a magnetic tube rack three times with 1 mL of buffer (20 mM potassium phosphate, 100 mM NaCl, pH 6.5). To elute the ssDNA from the washed beads, the tubes were placed in the magnetic rack, and the supernatant was removed and replaced with 0.1 M NaOH (aq). After thorough mixing with a pipette and re-settling of the beads using the magnetic rack, the supernatant was transferred to a fresh low-bind tube, and 50 μL of 0.1 M HCl (aq) was added to neutralize the solution.
Sequencing sample preparation began with polyadenylation (for sequences expected to end in thymine, cytosine, or guanine) or the addition of a poly(T) tail (for sequences expected to end in adenine) to the 3′ end of each DNA sample using commercial TdT. The samples were then amplified using primers that bind to a conserved 5′ sequence and the complementary 3′ tail while incorporating Illumina sequencing priming sites into the synthesized amplicons. This step was performed using qPCR in order to achieve optimal amplification of all samples regardless of input DNA concentration. A portion of each PCR product was analyzed by gel electrophoresis to confirm the size and relative abundance of the amplicons. The products of all samples were then normalized based on relative abundance and used as template for a second PCR reaction, which incorporated Illumina flow cell adaptors and a variable index into each sample. The products of the final PCR reaction were characterized by gel electrophoresis and all indexed samples were pooled together proportionally based on relative abundance. Size selection and purification of the pooled library was performed by DNA gel extraction and the final library was analyzed by Qubit dsDNA HS assay and Tapestation D1000 screentape to determine the final molar concentration. The library was then diluted, denatured and sequenced following standard Illumina protocols.

wild-type TdT = wild-type TdT (Mus musculus, UniProt P09838); assay: TdT extension assay with DNA-intercalating dye (SYTO 13); type: biochemical; conditions: metal cofactor MnCl2 pre-incubated with chelator; free nucleotides, ssDNA oligomer
wild-type TdT, sequence (P09838 149-510): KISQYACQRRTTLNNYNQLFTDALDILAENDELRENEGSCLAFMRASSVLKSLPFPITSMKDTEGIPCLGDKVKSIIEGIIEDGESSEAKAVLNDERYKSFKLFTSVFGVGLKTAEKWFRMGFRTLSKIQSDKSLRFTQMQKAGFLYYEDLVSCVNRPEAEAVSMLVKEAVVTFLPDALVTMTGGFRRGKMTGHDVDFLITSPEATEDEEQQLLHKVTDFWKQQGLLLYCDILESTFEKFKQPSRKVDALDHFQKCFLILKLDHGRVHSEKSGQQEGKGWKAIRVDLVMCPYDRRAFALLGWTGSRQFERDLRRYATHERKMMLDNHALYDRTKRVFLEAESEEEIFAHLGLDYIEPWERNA
Description: FIG. 14 provides data from an extension assay wherein wild-type TdT is incubated with a single-stranded DNA oligomer in the presence of free nucleotides and a DNA-intercalating dye (SYTO 13). As DNA synthesis occurs, fluorescent signal increases as more interactions of the intercalating dye with the ssDNA leads to higher fluorescent signal.

[2] = FLPA fluorescence intensity versus bulk electrolyte pH calibration; type: physicochemical; conditions: from fluorescence intensity vs pH
From the text: FIGS. 3A-C show how voltage-induced pH change can be visualized in real-time with a freely diffusing non-electroactive fluorescent probe. […] A large Pt counter electrode (CE, anode) surrounds a smaller Pt working electrode (WE, cathode). The two electrodes are separated by a 10 μm dielectric SiO2 region. The WE (410 μm×510 μm) contains a microarray of 300-nm diameter wells that cannot be optically resolved but appear as a smaller square region (˜250 μm×325 μm), made brighter by optical interference. The microarray is used as the region of interest (ROI) for all subsequent analysis. Images were acquired with an Excelitas X-Cite Xylis XT720S (360-720 nm LED) source, 1s exposure time, and GFP (525/50 nm) filter set.
Data points represent the average of three technical replicates, and error bars represent one standard deviation. The intensity follows a sigmoidal relationship as the fraction of deprotonated, fluorescent FLPA (inset) increases with pH (pKa˜6.5). Thus, FLPA is sensitive to an acid-OFF/neutral-ON pH switch over pH 5 to 8. The visualization strategy is amenable to other non-electroactive probes with different pKa values.

[3] = 5 μM C7-C, 0.250 mM Mn2+, 2 minutes at 37° C.

| pKa [2] | SMILES | inhibition of TdT extension [1, 3] | fraction of extended sequences ([1]; various chelator:metal ratios, 5 μM C7-C, 0.250 mM Mn2+, 2 minutes at 37° C.) | assayed ssDNA growth (fluorescent signal) (wild-type TdT) | TdT activity with chelator pre-incubated with reducing agent TCEP ([1]; TCEP reducing agent added, chelator cleaved) |
| --- | --- | --- | --- | --- | --- |
| – | c1ccc(SSc2ccccn2)nc1 [DTP, 2,2′-dithiopyridine, reference compound] | inhibition dependence on feed ratio of metal to inhibitor | – | – | – |
| – | O=C(O)CN(CCN(CC(=O)O)CC(=O)O)CC(=O)O [EDTA, Ethylenediaminetetraacetic Acid, reference compound] | – | markedly decreased | little-to-no-assayed ssDNA growth | – |
| ~6.5 | NCCOCCOCCOCCOCCOCCOCCNC(=S)Nc1ccc2c(c1)C(=O)OC21c2ccc(O)cc2Oc2cc(O)ccc21 [FLPA, fluorescein-PEG6-amine] | – | – | – | – |
| – | O=C(NCCc1ccc(O)c(O)c1)OCCSSCCOC(=O)NCCc1ccc(O)c(O)c1 [catechol 1, disulfanediylbis(ethane-2,1-diyl) bis((3,4-dihydroxyphenethyl)carbamate)] | inhibition dependence on feed ratio of metal to inhibitor and choice of chelator | – | no assayed ssDNA growth is observed | TdT activity is recovered |
| – | O=C(O)CN(CC(=O)O)C(=O)OCCSSCCOC(=O)N(CC(=O)O)CC(=O)O [tetraacid 2, 3,14-bis(carboxymethyl)-4,13-dioxo-5,12-dioxa-8,9-dithia-3,14-diazahexadecanedioic acid] | inhibition dependence on feed ratio of metal to inhibitor and choice of chelator | – | no assayed ssDNA growth is observed | – |
